Key:
[1] = target: Free fatty acid receptor 1 (Homo sapiens, UniProt O14842); assay: Agonist activity at human GPR40 expressed in HEK293 cells by Fluo4-AM dye based intracellular calcium flux assay; assay type: functional, cell-based
[2] = Tmax in Sprague-Dawley rat at 10 mg/kg, po by LC-MS analysis; assay type: ADME, organism-based; details: in vivo
[3] = MRTlast in Sprague-Dawley rat at 1 mg/kg, iv by LC-MS analysis; assay type: ADME, organism-based; details: in vivo
[4] = tested on: Hepatocyte; assay: Cytotoxicity against human primary hepatocytes assessed as cell viability at 1 to 100 uM incubated for 24 hrs by WST-1 assay; assay type: toxicity, cell-based; details: dose 1-100 µM
[5] = Cmax in Sprague-Dawley rat at 10 mg/kg, po by LC-MS analysis; assay type: ADME, organism-based; set-up: dose 10 mg/kg, route po; details: in vivo
[6] = Metabolic stability in human liver microsomes assessed as intrinsic clearance; assay type: ADME, Microsome
[7] = Metabolic stability in human liver microsomes assessed as half life; assay type: ADME, Microsome
[8] = Oral bioavailability in Sprague-Dawley rat […] by LC-MS analysis; assay type: ADME, organism-based; details: in vivo
[9] = AUC (0 to t) in Sprague-Dawley rat at 10 mg/kg, po by LC-MS analysis; assay type: ADME, organism-based; set-up: dose 10 mg/kg, route po; details: in vivo
[10] = tested on: Hepatocyte; assay: Disruption of plasma membrane integrity in human primary hepatocytes assessed as LDH release in cytosol upto 100 uM incubated for 24 hrs by absorbance based assay; assay type: toxicity, cell-based
[11] = Half life in Sprague-Dawley rat at 10 mg/kg, po by LC-MS analysis; assay type: ADME, organism-based; details: in vivo
[12] = Cmax in Sprague-Dawley rat at 1 mg/kg, iv by LC-MS analysis; assay type: ADME, organism-based; set-up: dose 1 mg/kg, route iv; details: in vivo
[13] = AUC (0 to t) in Sprague-Dawley rat at 1 mg/kg, iv by LC-MS analysis; assay type: ADME, organism-based; set-up: dose 1 mg/kg, route iv; details: in vivo
[14] = tested on: Hepatocyte; assay: Disruption of plasma membrane integrity in rat primary hepatocytes assessed as LDH release in cytosol at 100 uM incubated for 24 hrs by absorbance based assay; assay type: toxicity, cell-based
[15] = Half life in Sprague-Dawley rat at 1 mg/kg, iv by LC-MS analysis; assay type: ADME, organism-based; details: in vivo
[16] = Metabolic stability in rat liver microsomes assessed as intrinsic clearance; assay type: ADME, Microsome; details: read-out: CLH
[17] = MRTlast in Sprague-Dawley rat at 10 mg/kg, po by LC-MS analysis; assay type: ADME, organism-based; details: in vivo
[18] = Metabolic stability in rat liver microsomes assessed as half life; assay type: ADME, Microsome
[19] = Inhibition of bile acid efflux in Sprague-Dawley rat hepatocytes assessed as decrease in biliary excretion index incubated for 15 mins followed by compound washout for 15 mins and subsequent addition of compounds with d8-TCA measured after 15 mins by LC-MS/MS analysis; assay type: toxicity, cell-based, Hepatocyte; details: 0.5 h, at 5 to 25 µM, dose 5-25 µM, time 30 min
[20] = target: GPR40-Galpha16 (Homo sapiens, UniProt O14842+P30679); assay: Agonist activity at human GPR40/Galpha-16 expressed in HEK293 cells by Fluo4-AM dye based intracellular calcium flux assay; assay type: cell-based
Sequence of GPR40-Galpha16 (O14842 whole entry): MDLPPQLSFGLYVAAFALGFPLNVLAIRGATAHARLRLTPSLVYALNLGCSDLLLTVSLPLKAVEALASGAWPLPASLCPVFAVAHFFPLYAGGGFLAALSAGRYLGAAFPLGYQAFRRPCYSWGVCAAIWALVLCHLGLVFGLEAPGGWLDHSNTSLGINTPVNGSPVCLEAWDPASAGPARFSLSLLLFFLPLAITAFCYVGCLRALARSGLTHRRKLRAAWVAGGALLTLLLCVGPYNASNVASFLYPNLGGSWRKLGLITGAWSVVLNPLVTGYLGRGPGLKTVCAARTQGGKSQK
Sequence of GPR40-Galpha16 (P30679 whole entry): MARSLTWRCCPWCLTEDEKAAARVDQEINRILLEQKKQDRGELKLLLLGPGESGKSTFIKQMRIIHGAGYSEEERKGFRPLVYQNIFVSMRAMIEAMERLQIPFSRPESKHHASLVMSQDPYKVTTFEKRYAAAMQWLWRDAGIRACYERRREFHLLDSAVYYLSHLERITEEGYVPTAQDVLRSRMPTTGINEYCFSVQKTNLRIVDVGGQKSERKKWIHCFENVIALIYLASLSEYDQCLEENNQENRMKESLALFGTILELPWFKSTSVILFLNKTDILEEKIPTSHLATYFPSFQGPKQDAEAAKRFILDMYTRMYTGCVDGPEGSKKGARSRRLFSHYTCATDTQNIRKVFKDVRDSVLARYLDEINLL

Sequence of Free fatty acid receptor 1 (O14842 whole entry): as the sequence (O14842 whole entry) above

Which EC50 [1] does the source give for `Cc1cc(OCCCN2CCOCC2)cc(C)c1-c1cccc(COc2ccc([S+]([O-])CC(=O)O)cc2)c1` (racemic) here?
The EC50 was 66.7 nM.

With `Cc1cnccc1-c1cccc(COc2ccc([S+]([O-])CC(=O)O)cc2)c1` (racemic) as the molecule, how does the EC50 [1] read?
Its EC50 is 2000 nM.

Which EC50 [1] does the source give for `Cc1cncc(C)c1-c1cccc(COc2ccc([S+]([O-])CC(=O)O)cc2)c1` (racemic) here?
The EC50 was 3100 nM.

Which EC50 [1] does the source give for `Cc1cccc(C)c1-c1ccc(COc2ccc(S(=O)(=O)CC(=O)O)cc2)cc1` here?
Its EC50 is 716 nM.

Which EC50 [1] does the source give for `Cc1noc(C)c1-c1cccc(COc2ccc([S+]([O-])CC(=O)O)cc2)c1` (racemic) here?
Its EC50 is 5380 nM.

Which EC50 [1] does the source give for `O=C(O)C[S+]([O-])c1ccc(OCc2cccc(-c3ccncc3Cl)c2)cc1` (racemic) here?
Its EC50 is 1000 nM.

For `Cc1cccc(C)c1-c1cccc(COc2ccc([S@@+]([O-])CC(=O)O)cc2)c1`, which Tmax [2] is on record?
Its Tmax is 2 h.

What about the MRT last [3] of the same molecule?
The MRT last was 1.7 h.

And the Activity [4]?
The Activity was “Non-Toxic”.

And the Cmax [5]?
The Cmax was 1230 ng/mL.

And the CLH [6]?
Its CLH is 8.8 µL/min/mg.

What about the t1/2 [7] of the same molecule?
Its t1/2 is 6.3 min.

What about the bioavailability [8] of the same molecule?
The bioavailability was 87.5%.

What about the AUC(0-t) [9] of the same molecule?
Its AUC(0-t) is 7620 ng·h/mL.

What about the Activity [10] of the same molecule?
The Activity was “Non-Toxic”.

What about the half-life [11] of the same molecule?
The half-life was 3.2 h.

What about the Cmax [12] of the same molecule?
Its Cmax is 858 ng/mL.

And the AUC(0-t) [13]?
Its AUC(0-t) is 871 ng·h/mL.

What about the Activity [14] of the same molecule?
Its Activity is “Toxic”.

And the half-life [15]?
The half-life was 1.9 h.

And the microsomal CLint [16]?
Its microsomal CLint is 6.3 µL/min/mg.

And the MRT last [17]?
The MRT last was 4.5 h.

And the half-life [18]?
Its half-life is 3.82 h.

What does the source list for `Cc1cccc(C)c1-c1cccc(COc2ccc(S(=O)(=O)CC(=O)O)cc2)c1`?
inhibition (INH) [19]: Dose-Dependent Effect; EC50 [1]: 252 nM

For `Cc1cccc(C)c1-c1ccc(COc2ccc([S+]([O-])CC(=O)O)cc2)cc1` (racemic), which EC50 [1] is on record?
The EC50 was 454 nM.

Which EC50 [1] does the source give for `Cc1cc(OCC2(C)COC2)cc(C)c1-c1cccc(COc2ccc([S+]([O-])CC(=O)O)cc2)c1` (racemic) here?
Its EC50 is 62.8 nM.

Which EC50 [1] does the source give for `Cc1ccccc1C#Cc1ccc(S(=O)(=O)CC(=O)O)cc1` here?
Its EC50 is 4880 nM.

With `COc1ccc(F)c(-c2cccc(COc3ccc(S(=O)(=O)CC(=O)O)cc3)c2)c1` as the molecule, how does the EC50 [1] read?
The EC50 was 2900 nM.

For `CC#C[C@H](CC(=O)O)c1ccc(OCc2ccc(-c3cccc(OC)c3)cc2)cc1`, which EC50 [20] is on record?
The EC50 was 93.3 nM.

Which EC50 [1] does the source give for `CCCCC/C=C\C/C=C\CCCCCCCC(=O)O` [LINOLEIC ACID] here?
The EC50 was 6040 nM.

What about the EC50 [20] of the same molecule?
The EC50 was 10100 nM.
